These results are taken from PMC10223898 (Pharmaceuticals, 2023).

Each structure is given as a SMILES string. Where two headings read alike, the source gives them in different places.

The target of assay [1] is T1, LsrK (Salmonella typhimurium, UniProt Q8ZKQ6).
T1 construct: hexa-histidine (C); made in house; host or cells: E. coli BL21(DE3), pET-28a
Put plainly: LsrK inhibition assay (Kinase-Glo luminescence). The note with it: for inhibition at 200 µM: compound at 200 μM. The format is biochemical, S. typhimurium. On the procedure: (§1) To express LsrK or LsrK-N with a hexa-histidine tag at the C-terminus, the LsrK or LsrK-N encoding gene of S. typhimurium was amplified using primers carrying restriction endonuclease sites for BamHI and XhoI, respectively. The amplified product was cloned into the expression vector pET-28a with a C-terminal hexa-histidine tag and transfected into E. coli BL21(DE3) cells. The transformed cells were selected on LB agar plates containing 50 µg/mL kanamycin. The recombinant isolates were grown at 37 °C to the mid-log exponential phase. Protein synthesis was induced by 0.5 mM IPTG. After overnight growth, the cells were pelleted at 13,000× g for 10 min at 4 °C, resuspended in lysis buffer (50 mM NaH2PO4, 300 mM NaCl, and pH 8.0), and sonicated on ice for 10 cycles with a 30-s pulse and 30-s pause. The bacterial lysate was then centrifuged at 4 °C, 13,000× g for 10 min, and the supernatant passed through a 0.22 µm filter.
The LsrK inhibition assay was performed as described previously. The 62 selected compounds were dissolved in DMSO at a concentration of 2 mM. The assay was carried out with final concentrations of 300 nM LsrK, 100 μM ATP, and 300 μM DPD in a reaction buffer containing 25 mM TEA, pH 7.4, 800 μM MgCl2, and 0.1 mg/mL BSA. Specifically, 10 μL DPD, 10 μL LsrK, and 5 μL of the compound were added to a 96-well plate, and a 25 μL ATP or 25 μL reaction buffer was added after 30 min of incubation. The plate was incubated for 10 min at 37 °C, then 50 μL of kit reagent was added and the plate was incubated at 37 °C for 15 min. The luminescence signal was measured by the Enspire 2300 microplate reader (PerkinElmer). To confirm the activity of hits selected by primary screening, dose-response experiments were performed (200–6.25 µM). The inhibition % for each tested compound was determined as described previously. The IC50 values were calculated using the four logistic parameters.
Background: In Kinase-Glo more light means more ATP remaining.

Assay [2] concerns AI-2 QS in WHQ02 (E. coli BL21 ΔTolC pWHQ01). Briefly: Cell-based AI-2-mediated QS interference assay in WHQ02. The note with it: Escherichia coli. An excerpt: (§2) All chemicals were purchased from Sigma-Aldrich (St. Louis, MO, USA) if not otherwise stated. DPD was purchased from […] ZZBIO Co., Ltd. (Shanghai, China). The Kinase-Glo Max Luminescent kinase assay kit was purchased from Promega Corp. (Madison, WI, USA). The NTA sensor chip was purchased from GE Healthcare (Chicago, IL, USA). All compounds selected by virtual screening were purchased from Topscience Biotechnology Co., Ltd. (Shanghai, China). The QS reporter strains WHQ01 (S. typhimurium ATCC 202165 ΔTolC pWHQ01) and WHQ02 (E. coli BL21 ΔTolC pWHQ01) were donated by Huiqi Wen (Institute of Microbiology and Epidemiology, Academy of Military Sciences, Beijing, China). The plasmid pWHQ01 was constructed by cloning of lsr promoters and the luxCDABE luminescent gene. BamHI, XhoI, EcoRI, and NotI restriction endonucleases were purchased from New England Biolabs (Ipswich, MA, USA). pET-28a and pGEX-4T-1 were purchased from Novagen (Madison, WI, USA). E. coli BL21 (DE3) was purchased from TransGen Biotech Co., Ltd. (Beijing, China). The Ni-NTA column and GST Gravity column were purchased from Sangon Biotech (Shanghai, China). Sodium dodecyl sulfate-polyacrylamide gel electrophoresis (SDS-PAGE) gels and the Bradford Protein Assay Kit were purchased from Thermo Fisher Scientific (Waltham, MA, USA). Ultrafiltration centrifuge tubes were purchased from Millipore (Bedford, MA, USA). Dialysis bags were purchased from Beijing Solarbio Science and Technology Co., Ltd. (Beijing, China).
(§3) WHQ01 or WHQ02 was cultured overnight and diluted 1:100 in fresh LB supplemented with 100 µg/mL ampicillin and grown at 30 °C until the logarithmic phase (OD600 = 0.4–0.6). The bacterial culture was centrifuged at 4000× g for 5 min and the pellet was resuspended with fresh LB to prepare a suspension of 2 McFarland standard, which was added to a 96-well plate. In the experimental group, 62 compounds with final concentrations ranging from […] were added to obtain a total volume of 100 µL. A negative control comprising 100 µL of LB with DMSO of the same volume and a positive control comprising 100 µL of LB supplemented with 2% glucose and DMSO of the same volume were also added. Then, bacteria were grown at 37 °C for 3 h. The […] of WHQ01 or WHQ02 was directly regulated by the Lsr promoters to reflect the strength of AI-2 QS. Luminescence was measured by the Enspire 2300 microplate reader. To further study the effect of compounds on bacterial growth, a suspension containing 1 × 10^8 CFU/mL of WHQ01 or WHQ02 (0.5 McFarland standard) was diluted 1:100 with LB and added to a 96-well plate. Compounds were added to the 96-well plate at a final concentration of 100 µM and diluted in a gradient. DMSO of the same volume was added as the control group. The plate was grown at 37 °C for 18–24 h. The OD600 values were recorded using the Enspire 2300 microplate reader. The experiment was performed three times.

The subject of assay [3] is AI-2 QS in WHQ01 (S. typhimurium ATCC 202165 ΔTolC pWHQ01). Put plainly: Cell-based AI-2-mediated QS interference assay in WHQ01. The note with it: Salmonella enterica, read-out: WHQ01 (IC50).
Text: as §2, §3

In assay [4] the target is T1, LsrK. Put plainly: LsrK inhibition assay (Kinase-Glo luminescence). The format is biochemical, S. typhimurium. The note with it: dose-response curves at 50, 100 and 150 μM ATP.
Assay [5] deals with T1, LsrK. Briefly: SPR assay on immobilized LsrK. The format is binding, S. typhimurium. On the procedure:
as §1
(§4) Serial dilutions of compound 4171-0375 were injected, ranging in concentrations from 100 to 1.56 µM, an intermediate concentration of 12.5 µM was set as a repeat, and 1× PBS-T with 5% v/v DMSO was set as a control group. The association time was set to 120 s, the dissociation time was set to 130 s, and the flow rate was set to 30 µL/min. The resulting data were fit to the affinity binding model using Biacore Evaluation Software (GE Healthcare).
On the technique in general: Surface plasmon resonance follows binding to a sensor surface in real time, without labels.

Assay [6] addresses T2, LsrK-N protein (HPr binding domain, residues 1-260) (Salmonella typhimurium, UniProt Q8ZKQ6).
T2 construct: hexa-histidine (C); made in house; host or cells: E. coli BL21(DE3), pET-28a
Put plainly: SPR assay on immobilized LsrK-N. Set-up: species or system S. typhimurium. The method, then: as §1, §4

[7] abbreviates: dose-response 200–6.25 µM, 100 μM ATP, 300 μM DPD, mean ± SD, n = 3, read-out: LsrK (IC50).
Setting [8] is: dose-response assay, read-out: LsrK inhibition IC50.

T1 sequence (Q8ZKQ6 whole entry): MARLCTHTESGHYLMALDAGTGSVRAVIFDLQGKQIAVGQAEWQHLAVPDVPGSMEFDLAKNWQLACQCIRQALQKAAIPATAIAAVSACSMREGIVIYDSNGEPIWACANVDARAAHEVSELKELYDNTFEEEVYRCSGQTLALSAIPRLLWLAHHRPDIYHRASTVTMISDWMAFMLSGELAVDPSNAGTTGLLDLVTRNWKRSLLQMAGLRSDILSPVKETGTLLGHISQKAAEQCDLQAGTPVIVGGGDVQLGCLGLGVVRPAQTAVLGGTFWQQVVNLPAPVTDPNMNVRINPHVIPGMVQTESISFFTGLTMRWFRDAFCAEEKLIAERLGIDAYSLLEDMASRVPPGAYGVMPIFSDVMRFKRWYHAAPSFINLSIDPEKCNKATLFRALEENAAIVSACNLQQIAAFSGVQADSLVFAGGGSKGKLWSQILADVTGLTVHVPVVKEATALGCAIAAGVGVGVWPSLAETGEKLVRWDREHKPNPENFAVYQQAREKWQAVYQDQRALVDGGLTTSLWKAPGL
T2 sequence (Q8ZKQ6 1-260): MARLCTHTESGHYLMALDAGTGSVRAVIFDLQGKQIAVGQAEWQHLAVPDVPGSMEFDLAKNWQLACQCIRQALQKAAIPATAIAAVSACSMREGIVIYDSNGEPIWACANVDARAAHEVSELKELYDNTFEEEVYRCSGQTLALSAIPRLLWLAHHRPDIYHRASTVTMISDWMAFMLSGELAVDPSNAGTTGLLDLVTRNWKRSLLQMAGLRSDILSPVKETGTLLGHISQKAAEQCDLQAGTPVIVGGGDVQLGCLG

The term inhibition denotes the drop in the measured response relative to a control, in per cent. Read a high inhibition as a response far below the control. What is called IC50 is the point on the concentration scale where inhibition reaches its midpoint. Molecule `CCOc1cc(C2NC(C(=O)O)CS2)ccc1OCc1c(F)cccc1Cl` (stereo not shown) [Compound 8012-5390] returned an inhibition at 200 µM in assay [1] (mean ± SD, n = 3) of 60 ± 4%. Further, the IC50 amounted to 147 ± 5.58 µM in assay [1] (setting [7]); 17.7 ± 0.98 µM in assay [2] (BL21, read-out: WHQ02 (IC50)); 23.3 ± 1.05 µM in assay [3].

For `CN1CCN(C(=O)c2ccc(NCc3ccc(F)cc3)c(S(=O)(=O)Nc3cccc(C(F)(F)F)c3)c2)CC1` [Compound K659-0421], the inhibition at 200 µM in assay [1] (mean ± SD, n = 3) was found to be 75 ± 8%. In addition, the IC50 in assay [1] (setting [7]) is 73.7 ± 5.33 µM; in assay [1] (setting [8]), less than 100 µM; in assay [2] (BL21, read-out: WHQ02 (IC50)), 17 ± 0.37 µM; in assay [3] it was 7.97 ± 0.38 µM. Moreover, the “ATP competition (mode of inhibition)” value in assay [4] is “non-ATP competitive inhibitors”.

The Kd is a measure of binding affinity in units of concentration. For `CCOc1cc(/C=N/NC(=N)N)ccc1OCc1ccc(Cl)cc1` [Compound 4171-0375], testing at 200 µM in assay [1] (mean ± SD, n = 3) gave an inhibition of 98 ± 7%. The IC50 was 26.1 ± 2.94 µM in assay [1] (setting [7]); less than 100 µM in assay [1] (setting [8]); 29.1 ± 1.23 µM in assay [2] (BL21, read-out: AI-2 QS inhibition IC50 against WHQ02); 30.1 ± 1.62 µM in assay [2] (BL21, read-out: WHQ02 (IC50)); 42.9 ± 1.63 µM in assay [3]. In addition, the Kd in assay [5] (His-tagged LsrK on NTA chip, Biacore 8K, affinity model) came to 94.5 µM; in assay [6] (His-tagged LsrK-N on NTA chip, Biacore 8K, affinity model), 25.1 µM. Further, the “binding and dissociation behaviour on LsrK (SPR)” value in assay [5] (sensorgram, in words) was “quickly bound and dissociated”. For the same molecule, in assay [6] (sensorgram, in words), the “binding and dissociation behaviour on LsrK-N (SPR)” value is “quickly bound and dissociated”. In addition, in assay [4], the “ATP competition (mode of inhibition)” value was “non-ATP competitive inhibitors”.

Turning to `NCCc1cn(Cc2ccc(C(F)(F)F)cc2)nn1` [Compound 8020-4294], the inhibition at 200 µM in assay [1] (mean ± SD, n = 3) stood at 65 ± 9%. For the same molecule, the IC50 in assay [1] (setting [7]) was 148 ± 6.92 µM; in assay [2] (BL21, read-out: WHQ02 (IC50)), 67.2 ± 4.32 µM; in assay [3], 24.9 ± 1.1 µM.

Molecule `COc1cc(/C=C2/SC(=S)N(c3cccc(C(F)(F)F)c3)C2=O)ccc1OCC(=O)O` [Compound 3229-1889] showed an inhibition at 200 µM in assay [1] (mean ± SD, n = 3) of 63 ± 4%. Besides, the 50% inhibitory concentration (IC50) in assay [1] (setting [7]) is 121 ± 5.37 µM; in assay [2] (BL21, read-out: WHQ02 (IC50)) it was 15 ± 1.24 µM; in assay [3], 24.7 ± 1.42 µM.

`Cc1c(CC(=O)O)c(=O)oc2c(C)c(OCc3ccc(F)cc3F)ccc12` [Compound D715-0257] showed an inhibition at 200 µM in assay [1] (mean ± SD, n = 3) of 57 ± 7%. The IC50 in assay [1] (setting [7]) was found to be 153 ± 5.43 µM; in assay [2] (BL21, read-out: WHQ02 (IC50)), 22.3 ± 2.15 µM; in assay [3], 21.1 ± 1.18 µM.

The molecule `Cc1ccc(NC(=O)C[C@H](C)n2ccnc2)cc1Cl` [Compound G268-0878] displayed an inhibition at 200 µM in assay [1] (mean ± SD, n = 3) of 58 ± 5%. Besides, the IC50 amounted to 129 ± 6.14 µM in assay [1] (setting [7]); 42.3 ± 1.42 µM in assay [2] (BL21, read-out: WHQ02 (IC50)); 30.6 ± 1.26 µM in assay [3].
